What was measured:
[1] = test system: HL-60 human myelocytic leukemia cells; experiment: HL-60 cell proliferation (cell counting); assay type: cell-based; conditions: HL-60, 3 μM D-MAPP plus fumonisin B1, 48 h
Procedure: Proliferation and cell cycle studies. HL-60 human myelocytic leukemia cells (obtained from the American Type Culture Collection) were grown in RPMI 1640 medium containing 10 fetal calf serum at 37° C. in 5% CO2 incubator. For proliferation and cell cycle studies, cells were resuspended at a density of 2×10^5 cells/ml in serum-free media containing insulin (5 mg/liter) and transferrin (5 mg/liter) and sodium selenite (5 μg/liter) for 2-4 h. Cells were then treated with the indicated compounds. Ethanol concentration was always maintained at less than 0.1%. Cell proliferation was determined by counting cells using a hemacytometer, cell viability was evaluated by trypan blue dye exclusion, and cell cycle analysis was determined by propidium iodide flow cytometry as described (Chao et al, J. Biol. Chem. 267:23459 (1992)).
In structure-function analysis of ceramide-mediated growth suppression using amides of phenylaminoalcohols, D- and L-erythro-MAPP were employed. In these studies, HL-60 cells were treated with 5 μM of either D-e-MAPP or L-e-MAPP, and growth was determined at the indicated time points (FIG. 2A).
Studies were conducted examining the uptake and metabolism of D- and L-MAPP. In the first set of studies, the effect of duration of exposure of HL-60 cells to D-e-MAPP on the bioactivity of the molecule was determined. D-e-MAPP added to cells could be washed off by repeated sedimentation and washing of cells. Thus, after five cycles of washing, less than 10% of D-MAPP remained associated with the cell pellet-compared to unwashed cells (FIG. 5A).

[2] = molecular target: T1, Glucosylceramide synthase (Homo sapiens, UniProt Q16739); experiment: Glucocerebroside (glucosylceramide) synthase assay in vitro; assay type: biochemical; conditions: 20 μM
T1 sequence (Q16739 1-394): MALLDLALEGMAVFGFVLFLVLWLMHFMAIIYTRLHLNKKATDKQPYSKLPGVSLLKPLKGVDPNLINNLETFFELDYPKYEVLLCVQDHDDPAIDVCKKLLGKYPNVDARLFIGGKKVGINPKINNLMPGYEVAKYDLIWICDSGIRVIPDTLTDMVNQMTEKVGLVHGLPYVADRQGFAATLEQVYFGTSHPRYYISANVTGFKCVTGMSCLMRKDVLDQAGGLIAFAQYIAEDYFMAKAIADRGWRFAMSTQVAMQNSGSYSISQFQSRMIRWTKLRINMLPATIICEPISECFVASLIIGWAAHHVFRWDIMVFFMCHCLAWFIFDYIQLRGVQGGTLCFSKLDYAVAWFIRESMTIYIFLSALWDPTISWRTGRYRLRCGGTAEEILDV
Procedure: Glucocerebrosidase and glucocerebroside synthase assays. In vitro assays for gluccerebrosidase and for cerebroside synthase were performed as described (Abe et al, J. Biochem. (Tokyo) 11:191 (1992)).
In addition to ceramidase, inhibition of cerebroside synthase and sphingomyelin synthase or stimulation of sphingomyelinase or cerebrosidase could result in elevations in endogenous ceramide levels. Therefore, the effects of D- and L-e-MAPP were examined on these enzyme activities in vitro and in cells.

[3] = test system: ceramide-activated protein phosphatase (CAPP); experiment: CAPP serine/threonine phosphatase activity in vitro; assay type: biochemical; conditions: myelin basic protein phosphorylated by protein kinase A as substrate
alkaline ceramidase = experiment: Alkaline ceramidase activity in vitro at pH 9.0; assay type: biochemical, human; conditions: final concentrations up to 50 μM
Procedure: Measurement of ceramidase activity in HL-60 cells. Ceramidase activity in HL-60 cells was measured by a modification of the method of Gatt and Yavin (Methods Enzymol. 14:139 (1969)). Cells were disrupted by sonication in 0.25M sucrose, 1 mM EDTA, and centrifuged at 10,000×g for 10 min after which the supernatant was centrifuged at 100,000×g for 60 min. Ten μl of 1 mM ceramide substrate ([^3 H]C16 -ceramide) was mixed with 100 μl of Triton X-100 (0.1%) in chloroform/methanol, 2:1, and 100 μl of 0.2% sodium cholate in chloroform/methanol, 2:1, after which the solvent was evaporated under N2 at 70° C. To this mixture, 30 μl of water was added and the tubes were heated for 5 s in an 80° C. water bath and then put on ice. Fifty μl of the appropriate buffer depending on desired pH was added followed by 20 μl of 50 mM MgCl2 and 100 μl of cell extract. In experiments using inhibitors, the desired inhibitor was added in ethanol either with the substrate or directly to the final solution. The reaction mixture was incubated for 1 h at 37° C. The ^3 H-fatty acid products of ceramidase were separated by the addition of 2 ml of Dole's solution (isopropyl alcohol, heptane, NaOH), 1.2 ml of heptane, and 1 ml of water. After vortexing and centrifugation, the upper phase was discarded and the lower phase was washed twice with heptane and the upper phase discarded each time. Finally, 1 ml of 1N H2 SO4, and 2 ml of heptane were added, and after vortexing and centrifugation the upper phase was transferred for counting by liquid scintillation.
In order to evaluate the interactions of D- and L-e-MAPP with ceramidase, in vitro studies we conducted using cytosolic and membrane fractions from HL-60 cells. Initially, ceramidase activity was examined for pH dependence using tritium-labeled C16 -ceramide as substrate. […] The alkaline ceramidase activity was very similar to that described in fibroblasts and cerebellar tissue (Sugita et al, Biochim. Biophys. Acta 398:125 (1975), Wertz and Downing, FEBS Lett. 268:110 (1990)). In initial studies, the ability of this ceramidase to utilize D-e- and L-e-MAPP as substrates was investigated. […] These studies corroborate the cellular metabolism studies showing that L-e-MAPP is a substrate for ceramidase in vitro and in cells.
Next, the ability of D- and L-e-MAPP to interfere with hydrolysis of C16 -ceramide by ceramidase at pH 4.5 and 9.0 was evaluated. Inhibition of ceramidase activity by D-e-MAPP was compared to that by N-oleoylethanolamine, a putative inhibitor of acid ceramidase (Sugita et al, Biochim. Biophys. Acta 398:125 (1975)). […] The effects of N-oleoylethanolamine are consistent with the previously reported Ki of 700 μM (Sugita et al, Biochim. Biophys. Acta 398:125 (1975)). […] In contrast, D-e-MAPP was a relatively poor inhibitor of acid ceramidase with less than 10% inhibition of acid ceramidase at 50 μM (FIG. 6C).

acid ceramidase [4] = molecular target: T2, acid ceramidase (Homo sapiens, UniProt Q13510); experiment: Acid ceramidase activity in vitro at pH 4.5; assay type: biochemical; parameters: Ceramidase activity was determined from total homogenates of HL-60 cells; endogenous in cells; host or cells: HL-60 cells; conditions: pH 4.5, 50 μM C16-ceramide substrate
T2 sequence (Q13510 22-395): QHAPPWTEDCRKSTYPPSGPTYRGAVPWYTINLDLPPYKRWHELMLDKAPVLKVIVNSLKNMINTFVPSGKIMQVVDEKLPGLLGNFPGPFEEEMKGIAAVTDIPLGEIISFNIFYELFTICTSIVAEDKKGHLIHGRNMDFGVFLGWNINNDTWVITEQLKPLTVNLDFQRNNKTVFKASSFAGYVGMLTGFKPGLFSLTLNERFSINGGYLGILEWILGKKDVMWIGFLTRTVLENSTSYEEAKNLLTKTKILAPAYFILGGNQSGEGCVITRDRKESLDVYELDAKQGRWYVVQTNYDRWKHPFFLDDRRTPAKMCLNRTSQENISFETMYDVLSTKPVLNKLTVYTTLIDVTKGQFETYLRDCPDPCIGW
Procedure: Measurement of ceramidase activity in HL-60 cells. Ceramidase activity in HL-60 cells was measured by a modification of the method of Gatt and Yavin (Methods Enzymol. 14:139 (1969)). Cells were disrupted by sonication in 0.25M sucrose, 1 mM EDTA, and centrifuged at 10,000×g for 10 min after which the supernatant was centrifuged at 100,000×g for 60 min. Ten μl of 1 mM ceramide substrate ([^3 H]C16 -ceramide) was mixed with 100 μl of Triton X-100 (0.1%) in chloroform/methanol, 2:1, and 100 μl of 0.2% sodium cholate in chloroform/methanol, 2:1, after which the solvent was evaporated under N2 at 70° C. To this mixture, 30 μl of water was added and the tubes were heated for 5 s in an 80° C. water bath and then put on ice. Fifty μl of the appropriate buffer depending on desired pH was added followed by 20 μl of 50 mM MgCl2 and 100 μl of cell extract. In experiments using inhibitors, the desired inhibitor was added in ethanol either with the substrate or directly to the final solution. The reaction mixture was incubated for 1 h at 37° C. The ^3 H-fatty acid products of ceramidase were separated by the addition of 2 ml of Dole's solution (isopropyl alcohol, heptane, NaOH), 1.2 ml of heptane, and 1 ml of water. After vortexing and centrifugation, the upper phase was discarded and the lower phase was washed twice with heptane and the upper phase discarded each time. […]

acid ceramidase [5] = molecular target: T2, acid ceramidase; conditions: Sugita et al, Biochim. Biophys. Acta 398:125 (1975); read-out: previously reported Ki; cited from earlier work

## CCCCC(C)C(OC(=O)CC(CC(=O)O)C(=O)O)C(CC(C)CC(O)CCCCC(O)CC(O)C(C)N)OC(=O)CC(CC(=O)O)C(=O)O (stereo not shown) [fumonisin B1, reference compound]
[1]
  effect on growth suppression by D-e-MAPP: did not inhibit the effects of D-e-MAPP on growth

## CCCCCCCCCCCCCC(=O)NC(CN1CCOCC1)C(O)c1ccccc1 (stereo not shown) [PMMP, reference compound]
[2]; Control 1.009 ± 0.0424
  Glucosylceramide synthase activity: 0.208 ± 0.008 nmol/h/mg protein
[2]; Table I
  inhibition of cerebroside synthase activity: significant inhibition

## CCCCCCCCCCCCC/C=C/[C@@H](O)[C@H](CO)NC(=O)CCCCC [C6 -ceramide, reference compound]
[3]
  activation of CAPP in vitro: concentration-dependent stimulation of activity

## CCCCCCCC/C=C\CCCCCCCC(=O)NCCO [N-oleoylethanolamine, reference compound]
Alkaline ceramidase
  inhibition of alkaline ceramidase in vitro: less than 10%
Acid ceramidase [4]
  IC50: ~500 µM
Acid ceramidase [5]
  Ki: 700 µM

From patent US5851782A, “Inhibitors of ceramidase” (Duke University, priority 1996, dated 1998)
